Source: patent US20130302442A1, “METHODS OF USING (4S,4AS,5AR,12AS)-4-DIMETHYLAMINO-3,10,12,12A-TETRAHYDROXY-7-[(METHOXY(METHYL)AMINO)-METHYL]-1,11-DIOXO-1,4,4A,5,5A,6,11,12A-OCTAHYDRO-NAPHTHACENE-2-CARBOXYLIC ACID AMIDE” (priority 2012, published 2013)
Values after ≈ are worked out from the molar mass of the structure shown. Where two headings read alike, the source gives them in different places.

How the values were obtained:
Salmonella Spp. = assay: In vitro MIC testing, antibacterial spectrum of activity; assay type: cell-based; details: for MIC50 / MIC90: Salmonella
P. aeruginosa = assay: as above; assay type: cell-based; details: Pseudomonas aeruginosa; P. aeruginosa (11 isolates)
P. mirabilis = assay: as above; assay type: cell-based; details: Proteus mirabilis; P. mirabilis (30 isolates)
K. pneumoniae = assay: as above; assay type: cell-based; details: for MIC50 / MIC90: Klebsiella pneumoniae, K. pneumoniae (31 isolates)
E. coli = assay: as above; assay type: cell-based; details: Escherichia coli
E. faecalis = assay: as above; assay type: cell-based; details: Enterococcus faecalis
E. faecium = assay: as above; assay type: cell-based; details: Enterococcus faecium
P. acnes = assay: as above; assay type: cell-based, Propionibacterium acnes; details: Cutibacterium acnes
S. epidermidis = assay: as above; assay type: cell-based, Staphylococcus epidermidis; details: Staphylococcus epidermidis; for MIC50: read-out: MIC50; for MIC90: read-out: MIC90
P. avidum = assay: as above; assay type: cell-based; details: P. avidum [clinical isolates] (4 isolates)
S. agalactiae = assay: as above; assay type: cell-based; details: Streptococcus agalactiae
S. pneumoniae = assay: as above; assay type: cell-based, Streptococcus pneumoniae; details: Streptococcus pneumoniae, S. pneumoniae [PSSP] (32 isolates)
[1] = test system: methicillin-sensitive S. aureus (MSSA); assay: In vitro MIC against isolates of MSSA; assay type: cell-based, Staphylococcus aureus; details: Staphylococcus aureus, MSSA (34 isolates)
S. aureus = assay: In vitro MIC testing, antibacterial spectrum of activity; assay type: cell-based, Staphylococcus aureus; details: Staphylococcus aureus
[2] = test system: community-acquired methicillin-resistant S. aureus (MRSA-CA); assay: In vitro MIC against isolates of MRSA-CA; assay type: cell-based, Staphylococcus aureus; details: Staphylococcus aureus; MRSA-CA (33 isolates)
S. pyogenes = assay: In vitro MIC testing, antibacterial spectrum of activity; assay type: cell-based; details: Streptococcus pyogenes
[3] = test system: Streptococcus spp. [Group C]; assay: as above; assay type: cell-based; details: Streptococcus spp. [Group C] (30 isolates)
S. haemolyticus = assay: as above; assay type: cell-based; details: Staphylococcus haemolyticus, S. haemolyticus (33 isolates); for MIC90: read-out: MIC90
[4] = test system: hospital-associated methicillin-resistant S. aureus (MRSA-HA); assay: In vitro MIC against isolates of MRSA-HA; assay type: cell-based, Staphylococcus aureus; details: Staphylococcus aureus; MRSA-HA (33 isolates)
Chlamydia trachomatis [5] = assay: In vitro susceptibility testing of Chlamydia trachomatis in HEp-2 cells (first study); assay type: cell-based; details: Chlamydia trachomatis, C. trachomatis strains, read-out: MIC at which 90% of the strains were inhibited (MIC90)
Chlamydia trachomatis [6] = assay: Susceptibility testing (MIC, MBC) of 10 isolates of C. trachomatis in HEp-2 cells; assay type: cell-based
Chlamydia pneumoniae = assay: Susceptibility testing (MIC, MBC) of 10 isolates of C. pneumoniae in HEp-2 cells; assay type: cell-based
Bifidobacterium brevi = assay: In vitro MIC testing against anaerobic bacteria; assay type: cell-based; details: ATCC15698; Bifidobacterium brevi 3967, ATCC 15698
Clostridium perfringens = assay: microbe, parasite or virus in culture; assay type: cell-based
Lactobacillus casei = assay: In vitro MIC testing against anaerobic bacteria; assay type: cell-based; details: Lacticaseibacillus casei, ATCC393; Lactobacillus casei 1722, ATCC 393
[7] = test system: Streptococcus intermedius; assay: In vitro MIC testing against anaerobic bacteria; assay type: cell-based; details: ATCC27335; Streptococcus intermedius 1203, ATCC 27335
E. cloacae = assay: In vitro MIC testing, antibacterial spectrum of activity; assay type: cell-based; details: Enterobacter cloacae; E. cloacae (30 isolates)
[8] = test system: Prevotella melaninogenica; assay: In vitro MIC testing against anaerobic bacteria; assay type: cell-based; details: Prevotella melaninogenica 3443, read-out: MIC
[9] = test system: Lactobacillus acidophilus; assay: In vitro MIC testing against anaerobic bacteria; assay type: cell-based; details: Lactobacillus acidophilus 0681
Bacteroides ovatus = assay: In vitro MIC testing against anaerobic bacteria; assay type: cell-based; details: Bacteroides ovatus 3508, read-out: MIC
P. granulosum = assay: In vitro MIC testing, antibacterial spectrum of activity; assay type: cell-based; details: P. granulosum [clinical isolates] (3 isolates)
Veillonella parvula = assay: In vitro MIC testing against anaerobic bacteria; assay type: cell-based; details: ATCC17745; Veillonella parvula 1272, ATCC 17745
Bifidobacterium infantis = assay: In vitro MIC testing against anaerobic bacteria; assay type: cell-based; details: ATCC15702; Bifidobacterium infantis 3966, ATCC 15702
Bifidobacterium longum = assay: In vitro MIC testing against anaerobic bacteria; assay type: cell-based; details: ATCC15707; Bifidobacterium longum 3968, ATCC 15707
Prevotella spp. = assay: In vitro MIC testing against anaerobic bacteria; assay type: cell-based
Lactobacillus plantarum = assay: In vitro MIC testing against anaerobic bacteria; assay type: cell-based; details: Lactiplantibacillus plantarum, ATCC39268; Lactobacillus plantarum 2791, ATCC 39268
Bifidobacterium bifidum = assay: In vitro MIC testing against anaerobic bacteria; assay type: cell-based; details: ATCC15696; Bifidobacterium bifidum 3965, ATCC 15696
[10] = S. epidermidis [MRSE] (32 isolates)
[11] = S. epidermidis [MSSE] (31 isolates)
[12] = P. acnes [clinical isolates] (55 isolates)

With `O=C(O)c1cn(C2CC2)c2cc(N3CCNCC3)c(F)cc2c1=O` [Ciprofloxacin] the MIC50 (Salmonella Spp.) was 0.015 µg/mL (≈ 0.0453 µM), the MIC90 (Salmonella Spp.) was 0.03 µg/mL (≈ 0.0905 µM) and the “MIC Range” value (Salmonella Spp.; Salmonella Spp. (35 isolates)) was 0.015 to 0.25 µg/mL. For the same molecule, the MIC50 (P. aeruginosa) was over 2 µg/mL, the MIC90 (P. aeruginosa) was over 2 µg/mL and the MIC50 (P. mirabilis) was over 2 µg/mL. For the same molecule, the MIC90 (P. mirabilis) was over 2 µg/mL, the MIC50 (K. pneumoniae) was over 2 µg/mL and the MIC90 (K. pneumoniae) was over 2 µg/mL. For the same molecule, the MIC50 (E. coli) was 0.015 µg/mL (≈ 0.0453 µM) and the MIC90 (E. coli) was over 2 µg/mL.

Molecule `CCC[C@@H]1C[C@@H](C(=O)N[C@@H]([C@H]2O[C@H](SC)[C@H](O)[C@@H](O)[C@H]2O)[C@H](C)Cl)N(C)C1` [Clindamycin] has an MIC50 (E. faecalis) of over 32 µg/mL, an MIC90 (E. faecalis) of over 32 µg/mL and an MIC50 (E. faecium) of over 32 µg/mL. The MIC90 (E. faecium) was over 32 µg/mL, the MIC50 (E. faecium; VRE) was over 32 µg/mL and the MIC90 (E. faecium; VRE) was over 32 µg/mL. The MIC50 (P. acnes; read-out: MIC50) was at most 0.06 µg/mL, the MIC90 (P. acnes; read-out: MIC90) was 4 µg/mL (≈ 9.41 µM) and the MIC50 (S. epidermidis; [10]) was over 32 µg/mL. For the same molecule, the MIC90 (S. epidermidis; [10]) was over 32 µg/mL, the MIC50 (S. epidermidis; [11]) was 0.12 µg/mL (≈ 0.282 µM) and the MIC90 (S. epidermidis; [11]) was over 32 µg/mL. The “MIC Range” value (P. avidum) was “≦0.06-0.5 μg/mL”, the MIC50 (S. agalactiae) was 0.06 µg/mL (≈ 0.141 µM) and the MIC90 (S. agalactiae) was over 16 µg/mL. It also gave an MIC50 (S. pneumoniae; read-out: MIC50) of 0.03 µg/mL (≈ 0.0706 µM), an MIC90 (S. pneumoniae; read-out: MIC90) of 0.06 µg/mL (≈ 0.141 µM) and an MIC50 [1] of 0.12 µg/mL (≈ 0.282 µM). The MIC90 ([1]; read-out: MIC90) was over 32 µg/mL, the MIC50 (S. aureus; MRSA) was 0.25 µg/mL (≈ 0.588 µM) and the MIC90 (S. aureus; MRSA) was over 32 µg/mL. It also gave an MIC50 (S. aureus; MSSA) of 0.25 µg/mL (≈ 0.588 µM), an MIC90 (S. aureus; MSSA) of over 32 µg/mL and an MIC50 [2] of 0.12 µg/mL (≈ 0.282 µM). The MIC90 [2] was 0.25 µg/mL (≈ 0.588 µM), the MIC50 (S. pyogenes) was 0.03 µg/mL (≈ 0.0706 µM) and the MIC90 (S. pyogenes) was 0.06 µg/mL (≈ 0.141 µM). For the same molecule, the MIC50 ([3]; read-out: MIC50) was 0.06 µg/mL (≈ 0.141 µM), the MIC90 ([3]; read-out: MIC90) was 0.12 µg/mL (≈ 0.282 µM) and the MIC50 (S. haemolyticus; read-out: MIC50) was 0.12 µg/mL (≈ 0.282 µM). For the same molecule, the MIC90 (S. haemolyticus) was 1 µg/mL (≈ 2.35 µM), the MIC50 [4] was 2 µg/mL (≈ 4.71 µM) and the MIC90 [4] was over 32 µg/mL.

In the case of `C[C@H]1COc2c(N3CCN(C)CC3)c(F)cc3c(=O)c(C(=O)O)cn1c23` [Levofloxacin], the MIC90 (Chlamydia trachomatis [5]) was 0.25 µg/mL (≈ 0.692 µM), the “MIC Range” value (Chlamydia trachomatis [6]; 72 h) was 0.125 to 0.5 µg/mL and the MIC50 (Chlamydia trachomatis [6]; Chlamydia trachomatis, 72 h) was 0.25 µg/mL (≈ 0.692 µM). For the same molecule, the MIC90 (Chlamydia trachomatis [6]; Chlamydia trachomatis, 72 h) was 0.25 µg/mL (≈ 0.692 µM), the MBC (Chlamydia trachomatis [6]; Chlamydia trachomatis, after passage, read-out: MBC 90%) was 0.5 µg/mL (≈ 1.38 µM) and the “MBC Range” value (Chlamydia trachomatis [6]; after passage) was 0.125 to 1 µg/mL. The “MIC Range” value (Chlamydia pneumoniae; 72 h) was 0.5 µg/mL (≈ 1.38 µM), the MIC50 (Chlamydia pneumoniae; Chlamydia pneumoniae, 72 h) was 0.5 µg/mL (≈ 1.38 µM) and the MIC90 (Chlamydia pneumoniae; Chlamydia pneumoniae, 72 h) was 0.5 µg/mL (≈ 1.38 µM). For the same molecule, the MBC (Chlamydia pneumoniae; Chlamydia pneumoniae, after passage, read-out: MBC 90%) was 2 µg/mL (≈ 5.53 µM), the “MBC 90%” value (Chlamydia pneumoniae; after passage) was 2 µg/mL (≈ 5.53 µM) and the “MBC Range” value (Chlamydia pneumoniae; after passage) was 0.125 to 2 µg/mL.

For `CN(C)[C@@H]1C(O)=C(C(N)=O)C(=O)[C@@]2(O)C(O)=C3C(=O)c4c(O)cccc4[C@@](C)(O)[C@H]3C[C@@H]12` [Tetracycline, tetracycline], the MIC50 (Salmonella Spp.) was 2 µg/mL (≈ 4.5 µM), the MIC90 (Salmonella Spp.) was over 64 µg/mL and the MIC50 (P. aeruginosa) was 64 µg/mL (≈ 144 µM). The MIC (Bifidobacterium brevi) was 1 µg/mL (≈ 2.25 µM), the MIC50 (E. faecium) was 1 µg/mL (≈ 2.25 µM) and the MIC90 (E. faecium) was over 64 µg/mL. For the same molecule, the MIC50 (E. faecium; VRE) was 2 µg/mL (≈ 4.5 µM), the MIC90 (E. faecium; VRE) was over 64 µg/mL and the MIC (Clostridium perfringens) was over 16 µg/mL. For the same molecule, the MIC (Clostridium perfringens; Clostridium perfringens 3518) was over 16 µg/mL, the MIC50 (P. acnes) was 0.5 µg/mL (≈ 1.13 µM) and the MIC90 (P. acnes) was 4 µg/mL (≈ 9 µM). For the same molecule, the MIC50 (P. acnes; [12]) was 1 µg/mL (≈ 2.25 µM), the MIC90 (P. acnes; [12]) was 2 µg/mL (≈ 4.5 µM) and the “MIC Range” value (K. pneumoniae; K. pneumoniae [tetS] (7 isolates)) was 0.5 to 4 µg/mL. For the same molecule, the MIC50 (K. pneumoniae) was 8 µg/mL (≈ 18 µM), the MIC90 (K. pneumoniae) was over 64 µg/mL and the MIC (Lactobacillus casei) was 2 µg/mL (≈ 4.5 µM). For the same molecule, the “MIC Range” value (P. avidum) was 1 to 8 µg/mL, the MIC [7] was 2 µg/mL (≈ 4.5 µM) and the MIC90 (E. cloacae) was over 64 µg/mL. For the same molecule, the MIC [8] was 8 µg/mL (≈ 18 µM), the MIC [9] was 2 µg/mL (≈ 4.5 µM) and the MIC90 (E. coli; E. coli (33 isolates), read-out: MIC90) was over 64 µg/mL. The MIC (Bacteroides ovatus) was 0.5 µg/mL (≈ 1.13 µM), the “MIC Range” value (P. granulosum) was 1 to 2 µg/mL and the MIC90 (S. agalactiae) was over 32 µg/mL. The MIC (Veillonella parvula) was 1 µg/mL (≈ 2.25 µM), the MIC (Bifidobacterium infantis) was 1 µg/mL (≈ 2.25 µM) and the MIC (Bifidobacterium longum) was 2 µg/mL (≈ 4.5 µM). It also gave an MIC90 (S. haemolyticus) of over 32 µg/mL, an MIC (Prevotella spp.; Prevotella spp. 3564) of 1 µg/mL (≈ 2.25 µM) and an MIC (Prevotella spp.; Prevotella spp. 3568) of 4 µg/mL (≈ 9 µM). For the same molecule, the MIC (Lactobacillus plantarum) was 2 µg/mL (≈ 4.5 µM) and the MIC (Bifidobacterium bifidum) was 1 µg/mL (≈ 2.25 µM).
